Values quoted from earlier work as cited in patent publication US20030082231A1, “Coating for orally administered compositions” (priority 2001, published 2003).

System: sister chromatid exchanges (SCE) damage induced by benzo(a)pyrene

chlorophyllin
genotoxic inhibition (frequency of sister chromatid exchanges) (SCE damage induced by benzo(a)pyrene, in vivo): about 80% | cell proliferation kinetics (CPK) (chlorophyllin plus benzo(a)pyrene): inhibition of the cell proliferation kinetics
